The supplement of paper PMC4649846

What was measured:
MDA-MB-231 [1] = settings: incubation time: 72 h
How it was run: (§1)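 MDA-MB-231 cells were transfected with siRNA against BRCA1 or with non-targeting control siRNA, and a day later were seeded at 4000 cells per well into 384-well plates containing compounds at 5 concentrations. Plates were kept for 72 h at 37 °C and 5% CO2, after which viability was measured by CellTiter-Blue fluorescence. Logistic dose–response fits in Dotmatics Studies gave the IC50 and the drug sensitivity score, the latter being curve area relative to a reference area and normalised by log of top response.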

MDA-MB-231 [2] = assay: drug sensitivity score (DSS); higher = more sensitive; extreme values may be limits of the assay; settings: incubation time: 72 h
How it was run: as §1

[3] = siRNA: siControl (non-targeting)

Row | SMILES | IC50 of cell viability (MDA-MB-231 [1]; siRNA: siBRCA1) [nM] | IC50 of cell viability (MDA-MB-231 [1]; [3]) [nM] | drug sensitivity score (MDA-MB-231 [2]; siRNA: siBRCA1) | drug sensitivity score (MDA-MB-231 [2]; [3])
1 | COc1cc([C@@H]2c3cc4c(cc3[C@@H](O[C@@H]3O[C@@H]5CO[C@@H](c6cccs6)O[C@H]5[C@H](O)[C@H]3O)[C@H]3COC(=O)[C@H]23)OCO4)cc(OC)c1O [Teniposide] | 2840 | 1980 | 5.24 | 7.09
2 | CC[C@@H]1C(=O)OC[C@@H]1Cc1cncn1C [Pilocarpine] | > 4170 | > 4170 | 0 | 0
3 | Cc1cc(Nc2cc(CN3CCOCC3)c3nc(C)c(Cc4ccc(Cl)cc4F)n3n2)n[nH]1 | 1380 | > 4170 | 6.15 | 3.18
4 | CC[C@]1(O)C[C@@H]2CN(CCc3c([nH]c4ccccc34)[C@@](C(=O)OC)(c3cc4c(cc3OC)N(C)[C@H]3[C@@](O)(C(=O)OC)[C@H](OC(C)=O)[C@]5(CC)C=CCN6CC[C@]43[C@@H]65)C2)C1 [Vinblastine] | 5.72 | 5.65 | 31.4 | 30.9
5 | COc1cc(F)c(F)c(Nc2ccc(I)cc2F)c1NS(=O)(=O)C1(C[C@H](O)CO)CC1 [RDEA119 (Refametinib)] | 92.2 | 146 | 14.9 | 12.3
6 | O=C(O)CCCc1ccc(N(CCCl)CCCl)cc1 [Chlorambucil] | > 4170 | > 4170 | 0.465 | 0
7 | CNC(=O)c1ccccc1Sc1ccc2c(/C=C/c3ccccn3)n[nH]c2c1 [Axitinib] | > 4170 | > 4170 | 0 | 0
8 | C=CC(=O)Nc1cc2c(Nc3ccc(F)c(Cl)c3)ncnc2cc1OCCCN1CCOCC1 [Canertinib] | 2510 | 1690 | 5.78 | 7.67
9 | Nc1ccn([C@@H]2O[C@H](CO)[C@@H](O)C2(F)F)c(=O)n1 [Gemcitabine] | 2490 | 78.7 | 7.87 | 12.8
10 | CC1(C)CCC(c2ccc(Cl)cc2)=C(CN2CCN(c3ccc(C(=O)NS(=O)(=O)c4ccc(N[C@H](CCN5CCOCC5)CSc5ccccc5)c(S(=O)(=O)C(F)(F)F)c4)cc3)CC2)C1 [Navitoclax] | 835 | 821 | 11 | 10.3
11 | NC(=O)c1ccc(I)c([N+](=O)[O-])c1 [Iniparib] | > 4170 | > 4170 | 0 | 0
12 | Cc1c(N)nc([C@H](CC(N)=O)NC[C@H](N)C(N)=O)nc1C(=O)N[C@H](C(=O)N[C@H](C)[C@@H](O)[C@H](C)C(=O)N[C@H](C(=O)NCCc1nc(-c2nc(C(=O)NCCC[S+](C)C)cs2)cs1)[C@@H](C)O)[C@@H](OC1OC(CO)C(O)C(O)C1OC1OC(CO)C(O)C(OC(N)=O)C1O)c1cnc[nH]1 (stereo not given in full) [Bleomycin] | > 4170 | 125 | 0 | 3.28
13 | Clc1ccc(C(c2ccccc2Cl)C(Cl)Cl)cc1 (stereo not given) [Mitotane] | > 4170 | > 4170 | 1.03 | 0
14 | C[C@]12C=CC(=O)C=C1CC[C@@H]1[C@@H]2[C@@H](O)C[C@@]2(C)[C@H]1CC[C@]2(O)C(=O)CO [Prednisolone] | > 4170 | > 4170 | 0 | 0
15 | C[C@@H](Oc1cc(-c2cnn(C3CCNCC3)c2)cnc1N)c1c(Cl)ccc(F)c1Cl [Crizotinib] | > 4170 | 4070 | 0.595 | 4.02
16 | Cc1ccc(-n2nc(C(C)(C)C)cc2NC(=O)Nc2ccc(OCCN3CCOCC3)c3ccccc23)cc1 [Doramapimod] | > 4170 | > 4170 | 0 | 0
17 | Oc1nc(-c2ccc(C(F)(F)F)cc2)nc2c1CSCC2 [XAV-939] | 2820 | 230 | 1.98 | 4
18 | C=CCNC1=C2C[C@@H](C)C[C@H](OC)[C@H](O)[C@@H](C)/C=C(\C)[C@H](OC(N)=O)[C@@H](OC)/C=C\C=C(/C)C(=O)NC(=CC1=O)C2=O [Tanespimycin] | 377 | 233 | 15.1 | 17.3
19 | O=C(/C=C/c1cccc(S(=O)(=O)Nc2ccccc2)c1)NO [Belinostat] | 757 | 668 | 12.2 | 12.9
20 | Nc1nc(Cl)nc2c1ncn2[C@@H]1O[C@H](CO)[C@@H](O)[C@@H]1F [Clofarabine] | 82.1 | 28.1 | 8.22 | 12.5
21 | Nc1ccn([C@@H]2O[C@H](CO)[C@@H](O)[C@@H]2O)c(=O)n1 [Cytarabine] | 591 | 294 | 5.84 | 6.18
22 | Nc1nc(Cl)nc2c1ncn2[C@H]1C[C@H](O)[C@@H](CO)O1 [Cladribine] | 2880 | 91.8 | 5.2 | 9.09
23 | Cn1cnc2c(F)c(Nc3ccc(Br)cc3Cl)c(C(=O)NOCCO)cc21 [Selumetinib] | 610 | 297 | 10.3 | 10.7
24 | CC[C@@H]1C(=O)N(C)c2cnc(Nc3ccc(C(=O)NC4CCN(C)CC4)cc3OC)nc2N1C1CCCC1 [BI 2536] | 5.67 | 3.08 | 23.3 | 24.9
25 | COCC[n+]1c2c(n(Cc3cnccn3)c1C)C(=O)c1ccccc1C2=O [YM155] | 3.75 | 3.56 | 40.2 | 40.6
26 | NCC(=O)CCC(=O)O [Aminolevulinic acid] | > 4170 | > 4170 | 0 | 0
27 | CO[C@@H]1[C@H](N(C)C(=O)c2ccccc2)C[C@H]2O[C@]1(C)n1c3ccccc3c3c4c(c5c6ccccc6n2c5c31)C(=O)NC4 [PKC412 (Midostaurin)] | 517 | 206 | 11 | 14.7
28 | CN(C)C[C@@H]1CCn2cc(c3ccccc32)C2=C(C(=O)NC2=O)c2cn(c3ccccc23)CCO1 | 2720 | 3770 | 5.43 | 4.41
29 | CN1CCN(c2ccc3nc(-c4c(N)c5c(F)cccc5[nH]c4=O)[nH]c3c2)CC1 [Dovitinib] | > 4170 | > 4170 | 0 | 0
30 | Cn1cncc1[C@@](N)(c1ccc(Cl)cc1)c1ccc2c(c1)c(-c1cccc(Cl)c1)cc(=O)n2C [Tipifarnib] | 79.4 | 30.5 | 12.8 | 14.1
